From the NIST ThermoML archive (doi:10.1021/je700406p)

Assay: wn = mass fraction of the nth substance listed
Conditions: Liquid, Vibrating tube method

CC(C)(N)CO [2-amino-2-methylpropan-1-ol] + O
Conditions | mass density [kg/m3]
333.05 K, 14990 kPa, w1 = 0.4002 | 976.2
333.05 K, 15984 kPa, w1 = 0.4002 | 976.6
333.05 K, 16990 kPa, w1 = 0.4002 | 977
333.05 K, 18003 kPa, w1 = 0.4002 | 977.4
333.05 K, 18986 kPa, w1 = 0.4002 | 977.8
333.05 K, 19988 kPa, w1 = 0.4002 | 978.2
333.05 K, 21502 kPa, w1 = 0.4002 | 978.8
342.91 K, 1020 kPa, w1 = 0.2821 | 969
342.91 K, 2011 kPa, w1 = 0.2821 | 969.5
342.91 K, 3009 kPa, w1 = 0.2821 | 969.9
342.91 K, 4010 kPa, w1 = 0.2821 | 970.3
342.91 K, 4994 kPa, w1 = 0.2821 | 970.8
342.91 K, 5994 kPa, w1 = 0.2821 | 971.2
342.91 K, 7035 kPa, w1 = 0.2821 | 971.6
342.91 K, 7995 kPa, w1 = 0.2821 | 972
342.91 K, 8990 kPa, w1 = 0.2821 | 972.4
342.91 K, 9998 kPa, w1 = 0.2821 | 972.9
342.91 K, 10992 kPa, w1 = 0.2821 | 973.3
342.91 K, 11994 kPa, w1 = 0.2821 | 973.7
342.91 K, 12992 kPa, w1 = 0.2821 | 974.1
342.91 K, 13990 kPa, w1 = 0.2821 | 974.5
342.91 K, 14992 kPa, w1 = 0.2821 | 974.9
342.91 K, 15993 kPa, w1 = 0.2821 | 975.4
342.91 K, 16987 kPa, w1 = 0.2821 | 975.8
342.91 K, 17985 kPa, w1 = 0.2821 | 976.2
342.91 K, 18987 kPa, w1 = 0.2821 | 976.6
342.91 K, 19984 kPa, w1 = 0.2821 | 977
342.91 K, 20986 kPa, w1 = 0.2821 | 977.4
342.92 K, 509 kPa, w1 = 0.1997 | 971.6
342.92 K, 1001 kPa, w1 = 0.1997 | 971.8
342.92 K, 1008 kPa, w1 = 0.4976 | 953.4
342.92 K, 2000 kPa, w1 = 0.1997 | 972.2
342.92 K, 2004 kPa, w1 = 0.4976 | 953.8
342.92 K, 3000 kPa, w1 = 0.1997 | 972.7
342.92 K, 3006 kPa, w1 = 0.4976 | 954.3
342.92 K, 4000 kPa, w1 = 0.1997 | 973.1
342.92 K, 4000 kPa, w1 = 0.4976 | 954.8
342.92 K, 4997 kPa, w1 = 0.4976 | 955.3
342.92 K, 5000 kPa, w1 = 0.1997 | 973.6
342.92 K, 5996 kPa, w1 = 0.4976 | 955.7
342.92 K, 6000 kPa, w1 = 0.1997 | 974
342.92 K, 6996 kPa, w1 = 0.4976 | 956.2
342.92 K, 7001 kPa, w1 = 0.1997 | 974.4
342.92 K, 7993 kPa, w1 = 0.4976 | 956.7
342.92 K, 8000 kPa, w1 = 0.1997 | 974.8
342.92 K, 8988 kPa, w1 = 0.4976 | 957.2
342.92 K, 9009 kPa, w1 = 0.1997 | 975.2
342.92 K, 9983 kPa, w1 = 0.4976 | 957.6
342.92 K, 10002 kPa, w1 = 0.1997 | 975.6
342.92 K, 10990 kPa, w1 = 0.4976 | 958.1
342.92 K, 11001 kPa, w1 = 0.1997 | 976
342.92 K, 12000 kPa, w1 = 0.1997 | 976.5
342.92 K, 12003 kPa, w1 = 0.4976 | 958.5
342.92 K, 12992 kPa, w1 = 0.4976 | 958.9
342.92 K, 13000 kPa, w1 = 0.1997 | 976.9
342.92 K, 13996 kPa, w1 = 0.4976 | 959.4
342.92 K, 14000 kPa, w1 = 0.1997 | 977.3
342.92 K, 14988 kPa, w1 = 0.4976 | 959.9
342.92 K, 15002 kPa, w1 = 0.1997 | 977.7
342.92 K, 15995 kPa, w1 = 0.4976 | 960.3
342.92 K, 16002 kPa, w1 = 0.1997 | 978.2
342.92 K, 16984 kPa, w1 = 0.4976 | 960.8
342.92 K, 17001 kPa, w1 = 0.1997 | 978.6
342.92 K, 17995 kPa, w1 = 0.4976 | 961.2
